Tests used:
[1] = biological target: T1, APOL1 G2 (Homo sapiens, UniProt O14791, DEL388-389); experiment: APOL1 G2 HEK293 rescue of cell death caused by overexpression of APOL1 (CellTiter-Glo); type: cell-based; conditions: HEK293/T-REx APOL1 G2 clone #2, doxycycline induction, 17 hours, CellTiter-Glo luminescence; reversal of cell death; geometric mean of at least 2 assay runs
T1 construct: expressed in transfected cells; host or cells: HEK293/T-REx APOL1 G2 clone #2, doxycycline-inducible
T1 sequence (O14791 with tags, fused parts or gaps DEL388-389): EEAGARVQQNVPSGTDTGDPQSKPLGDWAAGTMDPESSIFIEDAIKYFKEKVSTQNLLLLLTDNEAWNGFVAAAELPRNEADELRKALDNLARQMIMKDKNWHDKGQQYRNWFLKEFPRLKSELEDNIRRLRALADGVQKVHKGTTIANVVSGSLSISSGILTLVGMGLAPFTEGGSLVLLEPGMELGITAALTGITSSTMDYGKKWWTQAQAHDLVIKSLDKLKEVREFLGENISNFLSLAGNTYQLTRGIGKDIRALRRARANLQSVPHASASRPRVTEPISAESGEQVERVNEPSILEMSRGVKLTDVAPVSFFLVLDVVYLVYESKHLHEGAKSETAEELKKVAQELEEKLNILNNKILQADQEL
Protocol: A HEK293 clonal cell line overexpressing APOL1 G2 (HEK293/T-REx APOL1 G2/clone #2) was maintained in 1×DMEM-GlutaMax (Gibco, 10569-010) media with 10% tetracycline-free FBS (Takara Bio USA, 631101), 5 μg/mL Blasticidin (Gibco, A1113903), and 100 μg/mL Zeocin (Invitrogen, R25001) in T75 flasks. In preparation for the assay, this media was aspirated and 2 mL of prewarmed TrypLE Express (Gibco, 12605-010) was added to a flask to detach cells. The flask was then incubated (humidified, 37° C. with 5% CO2) for 3-5 minutes. Afterwards, 8 mL of prewarmed cell assay media (1×DMEM-GlutaMax media with 10% tetracycline-free FBS) was added to the trypsinized cells. The suspension was gently mixed, and cells were counted using a Countess Cell Counting Chamber (Invitrogen). The suspension was diluted using cell assay media to generate a working stock solution (166,667 cells/mL). Using a MultiDrop Combi (Thermo Electron Corp), 30 μL (final cell density=5,000 cells/well) of the working stock solution was dispensed into each well of white 384-well assay ready plates (Nunc™, 164610) containing 6 ng/mL doxycycline, to induce APOL1 expression, and compound. All compounds were plated in a duplicate 8-point dilution series that consisted of 3-fold stepwise dilutions (0.5% DMSO final). Assay plates were incubated (humidified, 37° C. with 5% CO2) for 17 hours. After the incubation, the plates were equilibrated at room temperature for 1 hour. Next, 15 μl of CellTiter-Glo® reagent (Promega, G7570) was added to each well using a MultiDrop Combi. Plates were placed on an orbital shaker (500 rpm) for 5 minutes to induce cell lysis and then incubated at room temperature for 10 minutes. Luminescence was measured on an Envision plate reader. Collaborative Drug Discovery software was utilized for graphing data. Plots were generated using a four parameter logistic curve fit.
Table B2 below provides the results from this experiment. Unless otherwise specified, EC50 values are reported as the geometric mean of at least 2 assay runs on separate days. Each run represents the average of a technical replicate, where each compound was assayed twice in the same plate. A superscript t symbol indicates a value from the average of a technical replicate from a single assay run, where each compound was assayed twice in the same plate. Compounds in Table B2 are referred to by the corresponding Compound Number in Table 1, which is also referred to in the synthetic examples. When one or more of the numbered compounds are identified by stereochemistry (for example, (R)- or (S)-), the specific stereoisomer for which data is provided in Table B2 may be identified by the elution order of such compound as described in the synthetic examples. To illustrate, Compound 2 is the first-eluting enantiomer of step 4 of Example 1 and Compound 3 is the second-eluting enantiomer of step 4 of Example 1. Further, by way of illustration, Compound 27 is the first-eluting enantiomeric mixture in step 4 of Example 7 and Compound 28 is the second-eluting enantiomeric mixture in step 4 of Example 7. Then, Compound 27 is separated into Compound 29 (the first-eluting enantiomer) and Compound 30 (the second-eluting enantiomer) in Example 8, and Compound 28 is separated into Compound 31 (the first-eluting enantiomer) and Compound 32 (the second-eluting enantiomer) in Example 8. Absolute stereochemistry of such compounds may be identified by methods known in the art.
Rescue EC50 values reported in Table B2 below represent the half-maximal effective concentration for reversal of cell death caused by overexpression of APOL1.

[2] = biological target: T1, APOL1 G2; experiment: APOL1 G2 FLIPR calcium influx assay (HEK T-REx/GCaMP6f/APOL1 G2 K6.3 cells); type: cell-based; conditions: HEK293 clone expressing GCaMP6f, doxycycline-induced APOL1 G2; prevention of calcium influx; geometric mean of at least 2 assay runs
Protocol: A HEK293 clonal cell line was generated to stably express GCaMP6f, a genetically encoded calcium indicator, and inducibly express APOL1 G2 (HEK T-REx/GCaMP6f/APOL1 G2 K6.3). Cells were maintained in the following standard complete medium: DMEM with 4.5 g/L glucose and sodium pyruvate (BioWhittaker, Lonza, BE12-614F), supplemented with 10% FBS Performance Plus (Gibco, 16000044), 1% penicillin-streptomycin (BioWhittaker, DE17-602E), 2 mM ultraglutamine-1 (BioWhittaker cat. BE 17-605/U1), 50 μg/mL Zeocin (InvivoGen, ant-zn), 2.5 μg/mL Blasticidin (InvivoGen, ant-bl-5), and 25 μg/mL Hygromycin (InvivoGen, ant-hg). Standard propagation conditions consisted of plating 9×10^6, 4×10^6, 2×10^6 cells in a T225 flasks to be processed after 2, 3, or 4 days, respectively.
A source plate was generated containing 20 serially diluted compounds in DMSO (duplicate 8-point dose response). Next, 0.8 μL of compounds were transferred from the source plate to a destination plate prefilled with 79.2 μL of Ca^2+ free Tyrode's buffer (130 mM NaCl, 5 mM KCl, 1 mM MgCl2, 5 mM NaHCO3, 20 mM HEPES at pH 7.4). The destination plate was placed on a plate shaker (5 seconds at 2000 rpm) to mix. […] All transfer and mixing steps were conducted with an CyBi®-Well dispenser.
Cells were split by gently washing with DPBS (Euroclone, ECB4004L), followed by a 5-minute incubation (humidified, 37° C. with 5% CO2) with trypsin-EDTA solution (Euroclone, ECB3052D). Detached cells were diluted with standard complete medium without selective agents, counted, and plated in a 384 MTP microplate (GR4332CPL, Twin Helix) (10,000 cells/well in 25 μl/well) using a MATRIX WellMate dispenser. Plates were placed into a humidified incubator (37° C. with 5% CO2) overnight. The following day, 20 μL of doxycycline (Sigma, D9891) at 20 ng/mL in standard complete medium was added to cells with a CyBi®Drop dispenser to induce APOL1 G2 expression. After a 6-hour incubation (humidified, 37° C. with 5% CO2), cells were washed 3 times with Ca^2+ free Tyrode's Buffer (130 mM NaCl, 5 mM KCl, 1 mM MgCl2, 5 mM NaHCO3, 20 mM HEPES at pH 7.4) using a BIOTEK Microplate washer, such that 10 μL of buffer remained in each well after the final wash. Assay plates were then stored at room temperature for 10 minutes. Next, 10 μL of diluted compounds were transferred to the assay plate from the 2× compound plate using a CyBi®-Well dispenser. Compound incubation was then carried out at room temperature for 10 minutes. The assay plate was transferred to the […] and 20 μL of 10 mM Ca^2+ (final concentration=5 mM) Tyrode's buffer was injected.
Table B1 below summarizes the data from this experiment. Unless otherwise specified, AC50 and values are reported as the geometric mean of at least 2 assay runs on separate days. Each run represents the average of a technical replicate, where each compound was assayed twice in the same plate. A superscript t symbol indicates a value from the average of a technical replicate from a single assay run, where each compound was assayed twice in the same plate.
The AC50 values in Table B1 below reflect the compound's ability to prevent calcium influx by inhibiting APOL1. […] Compounds in Table B1 are referred to by the corresponding Compound Number in Table 1, which is also referred to in the synthetic examples. When one or more of the numbered compounds are identified by stereochemistry (for example, (R)- or (S)-), the specific stereoisomer for which data is provided in Table B1 may be identified by the elution order of such compound as described in the synthetic examples. To illustrate, Compound 2 is the first-eluting enantiomer of step 4 of Example 1 and Compound 3 is the second-eluting enantiomer of step 4 of Example 1. Further, by way of illustration, Compound 27 is the first-eluting enantiomeric mixture in step 4 of Example 7 and Compound 28 is the second-eluting enantiomeric mixture in step 4 of Example 7. […]

| Compound | EC50 [1] [nM] | AC50 [2] [nM] |
| --- | --- | --- |
| C[C@@H]1C[C@H](COc2ccc(S(=O)(=O)CCS(C)(=O)=O)cc2)CN1C1CCc2c(C#N)cc(Cl)cc2C1 (stereo partly drawn) [Compound 46, 3-chloro-6-[(2R,4S)-4-{[4-(2-methanesulfonylethanesulfonyl)phenoxy]methyl}-2-methylpyrrolidin-1-yl]-5,6,7,8-tetrahydronaphthalene-1-carbonitrile] | 418 | 1610 |
| C[C@@H]1C[C@H](COc2ccc(S(C)(=O)=O)cc2)CN1CC(CO)c1cc(Cl)cc(C#N)c1 (single isomer, unassigned) [Compound 129, 3-chloro-5-[(2R or 2S)-1-hydroxy-3-[(2R,4S)-4-[(4-methanesulfonylphenoxy)methyl]-2-methylpyrrolidin-1-yl]propan-2-yl]benzonitrile] | 2140 | 4250 |
| C[C@@H]1C[C@H](COc2ccc(S(=O)(=O)CCS(C)(=O)=O)cc2)CN1C1CCc2c(C#N)cc(Cl)cc2C1 (single isomer, unassigned) [Compound 48, (6R or 6S)-3-chloro-6-[(2R,4S)-4-{[4-(2-methanesulfonylethanesulfonyl)phenoxy]methyl}-2-methylpyrrolidin-1-yl]-5,6,7,8-tetrahydronaphthalene-1-carbonitrile] | 398 | 1130 |
| C[C@@H]1C[C@H](COc2ccc(S(=O)(=O)CCO)cc2)CN1C1CCc2ccc(C#N)cc2C1 (single isomer, unassigned) [Compound 60, (7S or 7R)-7-[(2R,4S)-4-{[4-(2-hydroxyethanesulfonyl)phenoxy]methyl}-2-methylpyrrolidin-1-yl]-5,6,7,8-tetrahydronaphthalene-2-carbonitrile] | 37 | 477 |
| C[C@@H]1CN(C(CO)Cc2cc(Cl)cc(C#N)c2)C[C@H]1COc1ccc(S(C)(=O)=O)cc1 (single isomer, unassigned) [Compound 122, 3-chloro-5-[(2S or 2R)-3-hydroxy-2-[(3S,4S)-3-[(4-methanesulfonylphenoxy)methyl]-4-methylpyrrolidin-1-yl]propyl]benzonitrile] | 789 | 1110 |
| C[C@@H]1C[C@H](COc2ccc(S(=O)(=O)CCCS(C)(=O)=O)cc2)CN1C1CCc2ccc(Cl)cc2C1 (single isomer, unassigned) [Compound 53, (2R,4S)-1-[(2R or 2S)-7-chloro-1,2,3,4-tetrahydronaphthalen-2-yl]-4-{[4-(3-methanesulfonylpropanesulfonyl)phenoxy]methyl}-2-methylpyrrolidine] | 279 | 999 |
| C[C@@H]1CN(CCc2cc(Cl)cc(C#N)c2)C[C@H]1COc1ccc(S(C)(=O)=O)nc1 [Compound 85, 3-chloro-5-{2-[(3S,4S)-3-{[(6-methanesulfonylpyridin-3-yl)oxy]methyl}-4-methylpyrrolidin-1-yl]ethyl}benzonitrile] | 186 | 221 |
| C[C@@H]1C[C@H](COc2ccc(S(C)(=O)=O)nc2)CN1CCc1cc(C#N)cc(C#N)c1 [Compound 39, 5-{2-[(2R,4S)-4-{[(6-methanesulfonylpyridin-3-yl)oxy]methyl}-2-methylpyrrolidin-1-yl]ethyl}benzene-1,3-dicarbonitrile] | 121 | 554 |
| C[C@@H]1CN(CCc2cccc(C#N)c2)C[C@H]1COc1ccc(S(C)(=O)=NCCS(C)(=O)=O)cc1 (single isomer, unassigned) [Compound 69] | 377 | 346 |
| C[C@@H]1C[C@H](COc2ccc(S(=O)(=O)CCO)cc2)CN1C1CCc2c(C#N)cc(Cl)cc2C1 (stereo partly drawn) [Compound 55, 3-chloro-6-[(2R,4S)-4-{[4-(2-hydroxyethanesulfonyl)phenoxy]methyl}-2-methylpyrrolidin-1-yl]-5,6,7,8-tetrahydronaphthalene-1-carbonitrile] | 240 | 876 |
| C[C@@H]1C[C@H](COc2ccc(S(C)(=O)=O)nc2)CN1CC(O)c1cccc(C#N)c1 (single isomer, unassigned) [Compound 93, 3-[(1R or 1S)-1-hydroxy-2-[(2R,4S)-4-{[(6-methanesulfonylpyridin-3-yl)oxy]methyl}-2-methylpyrrolidin-1-yl]ethyl]benzonitrile] | 1670 | 1250 |

Source: US20260055083A1, “APOL1 INHIBITORS AND METHODS OF USE” (Maze Therapeutics, Inc., priority 2022, published 2026)
